In ChEMBL document CHEMBL6178021, “Optimization of Tambjamines Active against Multiple Stages of Malaria Parasites” (J Med Chem, 2025):
Converted amounts (≈) assume the structure as drawn.

Tests used:
[1] = Metabolic stability in human liver microsomes assessed as half life measured up to 60 mins by LC/MS analysis; format: ADME, Microsome
[2] = Solubility of the compound in potassium phosphate buffer at pH 7.4 by UV-vis spectroscopy; settings: buffer
Plasmodium falciparum [3] = assay: microbe, parasite or virus in culture; settings: Dd2, 72 h
Description: Antiplasmodial activity against asexual blood-stage Plasmodium falciparum Dd2 using 2% haematocrit and 0.2% parasitemia assessed as reduction in fluorescence measured after 72 hrs by Malaria SYBR Green I-based Fluorescence (MSF) assay

Plasmodium yoelii [4] = assay: Antimalarial activity against erythrocytic Plasmodium yoelii MRA-428 infected in CF1 mouse assessed as reduction in parasitemia at 25 mg/kg, po once daily for 4 days measured on day 5; format: functional; parameters: scale not given: the % may be the effect or the level left; settings: time 4 day
Plasmodium yoelii [5] = assay: Antimalarial activity against erythrocytic Plasmodium yoelii MRA-428 infected in CF1 mouse assessed as reduction in parasitemia at 50 mg/kg, po once daily for 4 days measured on day 5; format: functional; parameters: scale not given: the % may be the effect or the level left; settings: time 4 day
HepG2 = assay: Cytotoxicity against human HepG2 cells assessed as cell viability measured after 48 hrs by MTT assay; format: toxicity, cell-based; settings: hepg2
MDR1 (human) [6] = assay: Apparent permeability across apical to basolateral side in MDCK transfected with human MDR1 cells incubated for 1 hr by LC-MS analysis; settings: dog, MDCK-MDR1
Plasmodium falciparum [7] = assay: microbe, parasite or virus in culture; settings: D6, 72 h
Description: Antiplasmodial activity against asexual blood-stage Plasmodium falciparum D6 using 2% haematocrit and 0.2% parasitemia assessed as reduction in fluorescence measured after 72 hrs by Malaria SYBR Green I-based Fluorescence (MSF) assay

Plasmodium falciparum [8] = assay: Antiplasmodial activity against asexual blood-stage Plasmodium falciparum Tm90-C2B using 2% haematocrit and 0.2% parasitemia assessed as reduction in fluorescence measured after 72 hrs by Malaria SYBR Green I-based Fluorescence (MSF) assay; format: functional, organism-based
[9] = Metabolic stability in mouse liver microsomes assessed as half life measured up to 60 mins by LC/MS analysis; format: ADME, Microsome
in vitro [10] = settings: human, liver microsomes
in vitro [11] = settings: mouse, liver microsomes
Plasmodium yoelii [12] = assay: Antimalarial activity against erythrocytic Plasmodium yoelii MRA-428 infected in CF1 mouse assessed as cured mouse at 50 mg/kg, po once daily for 4 days measured on day 28 day; format: functional, organism-based; settings: time 4.0 day
Plasmodium yoelii [13] = assay: Antimalarial activity against erythrocytic Plasmodium yoelii MRA-428 infected in CF1 mouse assessed as cured mouse at 25 mg/kg, po once daily for 4 days measured on day 28 day; format: functional, organism-based; settings: time 4.0 day
Plasmodium yoelii [14] = assay: Antimalarial activity against erythrocytic Plasmodium yoelii MRA-428 infected in CF1 mouse assessed as reduction in parasitemia at 10 mg/kg, po once daily for 4 days measured on day 5; format: functional; parameters: scale not given: the % may be the effect or the level left; settings: time 4 day
MDR1 (human) [15] = assay: Apparent permeability across basolateral to apical side in MDCK transfected with human MDR1 cells incubated for 1 hr by LC-MS analysis; settings: dog, MDCK-MDR1

Structure (SMILES) | half-life [1] | solubility [2] | IC50 (Plasmodium falciparum [3]) | Activity (Plasmodium yoelii [4]) | Activity (Plasmodium yoelii [5]) | IC50 (HepG2) | Papp A→B at 1 h (MDR1 (human) [6]) | IC50 (Plasmodium falciparum [7]) | IC50 (Plasmodium falciparum [8]) | half-life [9] | microsomal CLint at 1 h (in vitro [10]) | microsomal CLint at 1 h (in vitro [11]) | Activity (Plasmodium yoelii [12]) | Activity (Plasmodium yoelii [13]) | Activity (Plasmodium yoelii [14]) | Papp B→A at 1 h (MDR1 (human) [15])
CCc1ccc(C2=N/C(=C\NC3CCCCCCC3)C(C)=C2C)[nH]1 | > 60 min | 57.7 µM (≈ 18.8 µg/mL) | 3.97 nM | 97% | 100% | 2020 nM | 0.022 ×10⁻⁶ cm/s | 5.05 nM | 4.28 nM | > 60 min | – | – | – | – | – | –
CC1=C(C)/C(=C/NC2CCCCC2)N=C1c1ccc(C)[nH]1 | > 60 min | 168 µM (≈ 47.6 µg/mL) | 4.17 nM | 100% | 100% | 6820 nM | 0.053 ×10⁻⁶ cm/s | 9.92 nM | 4.9 nM | 37.2 min | 13.6 µL/min/mg | 37.3 µL/min/mg | Not active; None Of The Mouse Cured Out Of Four Tested | Not active; None Of The Mouse Cured Out Of Four Tested | 0% | 0.37 ×10⁻⁶ cm/s
CCC1=C(C)/C(=C/NC2CCCCC2)N=C1c1ccc(C)[nH]1 | > 60 min | 72.5 µM (≈ 21.6 µg/mL) | 15.7 nM | 100% | 100% | 8090 nM | 0.33 ×10⁻⁶ cm/s | 27.4 nM | 32.3 nM | 31.7 min | 6.07 µL/min/mg | 43.7 µL/min/mg | Not active; None Of The Mouse Cured Out Of Four Tested | Not active; None Of The Mouse Cured Out Of Four Tested | 80.3% | 0.099 ×10⁻⁶ cm/s
CCC1=C(CC)/C(=C/NC2CCCCCC2)N=C1c1ccc(CC)[nH]1 | > 60 min | 30.1 µM (≈ 10.2 µg/mL) | 3.21 nM | 100% | 100% | 3640 nM | 0.03 ×10⁻⁶ cm/s | 7.2 nM | 4.57 nM | > 60 min | 13.3 µL/min/mg | 5.29 µL/min/mg | Not active; None Of The Mouse Cured Out Of Four Tested | Not active; None Of The Mouse Cured Out Of Four Tested | 37.6% | 0.012 ×10⁻⁶ cm/s
CCc1ccc(C2=N/C(=C\NC3CCCCCC3)C3=C2OCCO3)[nH]1 | > 60 min | 52.1 µM (≈ 17.8 µg/mL) | 16.7 nM | 67.4% | – | 1780 nM | 0.042 ×10⁻⁶ cm/s | 7.58 nM | 3.34 nM | 28.7 min | 20.6 µL/min/mg | 48.2 µL/min/mg | – | – | 34.2% | 0.47 ×10⁻⁶ cm/s
CCN(CC)CCCC(C)Nc1ccnc2cc(Cl)ccc12 (centres undefined) | – | – | – | – | – | – | – | – | – | – | – | – | Not active; None Of The Mouse Cured Out Of Four Tested | Not active; None Of The Mouse Cured Out Of Four Tested | – | –
CCC1=C(CC)/C(=C/NC2CCCCC2)N=C1c1ccc[nH]1 | 30.5 min | 307 µM (≈ 91.3 µg/mL) | 115 nM | 100% | 100% | 13000 nM | 0.22 ×10⁻⁶ cm/s | 72.1 nM | 79.9 nM | 40.1 min | 45.5 µL/min/mg | 34.5 µL/min/mg | Not active; None Of The Mouse Cured Out Of Four Tested | Not active; None Of The Mouse Cured Out Of Four Tested | 94.4% | 0.18 ×10⁻⁶ cm/s
CCC1=C(C)/C(=C/NC2CCCCCCC2)N=C1c1ccc(CC)[nH]1 | 41.4 min | 10 µM (≈ 3.4 µg/mL) | 9.01 nM | 100% | 100% | 4280 nM | 0.095 ×10⁻⁶ cm/s | 7.39 nM | 2.98 nM | > 60 min | 33.4 µL/min/mg | 17.5 µL/min/mg | Not active; None Of The Mouse Cured Out Of Four Tested | Not active; None Of The Mouse Cured Out Of Four Tested | 61.9% | –
COc1ccc(Cc2ccc(C3=N/C(=C\NC4CCCCC4)C4=C3OCCO4)[nH]2)cc1 | > 60 min | 16.4 µM (≈ 6.88 µg/mL) | 12.6 nM | 31.2% | – | 1550 nM | 0.002 ×10⁻⁶ cm/s | 6.08 nM | 9.6 nM | > 60 min | 18.1 µL/min/mg | 16.2 µL/min/mg | – | – | 5.01% | 0.051 ×10⁻⁶ cm/s
C(/NC1CCCCC1)=C1/N=C(c2ccc[nH]2)C2=C1OCCO2 | 13.1 min | 231 µM (≈ 69.2 µg/mL) | 53.5 nM | 26.7% | – | 9080 nM | 0.33 ×10⁻⁶ cm/s | 48.5 nM | 43.9 nM | 16.1 min | 105 µL/min/mg | 86.4 µL/min/mg | – | – | 7.6% | 4.4 ×10⁻⁶ cm/s
COC1=C(OC)/C(=C/NC2CCCCC2)N=C1c1ccc[nH]1 | 14.6 min | 478 µM (≈ 144 µg/mL) | 73.5 nM | 70.8% | – | 41600 nM | 4.3 ×10⁻⁶ cm/s | 66.8 nM | 83.3 nM | 18.7 min | 94.9 µL/min/mg | 74.1 µL/min/mg | – | – | 0% | 4.8 ×10⁻⁶ cm/s
CC1=C(C)/C(=C/NC2CCCCCC2)N=C1c1ccc(C)[nH]1 | 55 min | 72.3 µM (≈ 21.5 µg/mL) | 3.73 nM | 100% | 100% | 6770 nM | 0.006 ×10⁻⁶ cm/s | 12.4 nM | 4.84 nM | 36.8 min | 25.2 µL/min/mg | 37.6 µL/min/mg | Not active; None Of The Mouse Cured Out Of Four Tested | Not active; None Of The Mouse Cured Out Of Four Tested | 0% | 0.12 ×10⁻⁶ cm/s
C(/NC1CCCCC1)=C1/N=C(c2ccc[nH]2)C2=C1CCCC2 | – | 294 µM (≈ 86.9 µg/mL) | 13.2 nM | 100% | 100% | – | 0.27 ×10⁻⁶ cm/s | – | 16.6 nM | 23.8 min | 51.9 µL/min/mg | 58.2 µL/min/mg | Not active; None Of The Mouse Cured Out Of Four Tested | Not active; None Of The Mouse Cured Out Of Four Tested | 88.8% | 0.092 ×10⁻⁶ cm/s
CCC1=C(CC)/C(=C/NC2CCCCCCC2)N=C1c1ccc(Br)[nH]1 | > 60 min | 6.28 µM (≈ 2.54 µg/mL) | 124 nM | 42.3% | – | 9480 nM | 0.006 ×10⁻⁶ cm/s | 53.4 nM | 75.2 nM | > 60 min | 9.19 µL/min/mg | 10.4 µL/min/mg | – | – | 20.4% | 0.066 ×10⁻⁶ cm/s
CCc1ccc(C2=N/C(=C\NC3CCCCCC3)C(OC)=C2OC)[nH]1 | > 60 min | 56.1 µM (≈ 19.3 µg/mL) | 4.97 nM | 59.6% | – | 11000 nM | 0.059 ×10⁻⁶ cm/s | 3.69 nM | 1.41 nM | 36.6 min | 12.6 µL/min/mg | 37.9 µL/min/mg | – | – | 13.5% | 0.16 ×10⁻⁶ cm/s
C(/NC1CCCCCC1)=C1/N=C(c2ccc[nH]2)C2=C1OCCO2 | 14.9 min | 183 µM (≈ 57.4 µg/mL) | 25.7 nM | 31.2% | – | 7680 nM | 1.7 ×10⁻⁶ cm/s | – | 12.6 nM | 19.5 min | 92.8 µL/min/mg | 79.8 µL/min/mg | – | – | 0% | 2.9 ×10⁻⁶ cm/s
COc1ccc(Cc2ccc(C3=N/C(=C\NC4CCCCC4)C4=C3CCCC4)[nH]2)cc1 | > 60 min | 25.5 µM (≈ 10.6 µg/mL) | 12.2 nM | 0% | – | 2020 nM | – | 9.68 nM | 5.92 nM | > 60 min | 11.2 µL/min/mg | 9.87 µL/min/mg | – | – | 0% | –
CCc1ccc(C2=N/C(=C\NC3CCCCC3)C(OC)=C2OC)[nH]1 | > 60 min | 99.6 µM (≈ 32.8 µg/mL) | 15.5 nM | 12.1% | – | 11400 nM | 0.21 ×10⁻⁶ cm/s | 10.3 nM | 3.96 nM | 26.2 min | 16.8 µL/min/mg | 52.8 µL/min/mg | – | – | 12.3% | 0.49 ×10⁻⁶ cm/s
